Results reported in patent US20090137652A1, “METHODS FOR NEUROPROTECTION” (priority 2005, published 2009).
Counter-ions that a name gives are not always drawn.

Columns and labels:
PC12 cells = test: PC12 cell serum withdrawal model, MTS cell survival assay; format: cell-based
Description: Serum withdrawal is a cytotoxic environmental challenge that results in cell death in cultured cell lines as well as in primary cells of various tissue origins, including nerve cells. In particular, pheochromocytoma (PC) 12 cells have been widely employed as an in vitro neuronal cell model for a wide variety of neurodegenerative and cell death related disorders (Muriel, et al, Mitochondrial free calcium levels (Rhod-2 fluorescence) and ultrastructural alterations in neuronally differentiated PC12 cells during ceramide-dependent cell death, J. Comp. Neurol., 2000, 426(2), 297-315; Dermitzaki, et al, Opioids transiently prevent activation of apoptotic mechanisms following short periods of serum withdrawal, J. Neurochem., 2000, 74(3), 960-969; Carlile, et al, Reduced apoptosis after nerve growth factor and serum withdrawal: conversion of tetrameric glyceraldehyde-3-phosphate dehydrogenase to a dimer, Mol. Pharmacol., 2000, 57(1), 2-12). PC12 cells were cultured in sterile media (RPMI 1640) supplemented with 10% heat-inactivated horse serum and 5% fetal bovine serum (FBS). The culture medium also contained Penicillin-Streptomycin-Neomycin antibiotic (50 µg, 50 µg, 100 µg, respectively). Medium was exchanged every other day and the cells were passed in log phase near confluence.
The control cells were cultured in regular media without any treatment. An enantiomer of Formula 7 or Formula 8 (10 µM) was mixed well in the medium and then applied to the cells. For the 2 day assay, an enantiomer of Formula 7 or Formula 8 (10 µM) was only applied to the cells once at the time of serum withdrawal. For the 7 day assay, an enantiomer of Formula 7 or Formula 8 (10. mu.M) was applied to the cells at the time of serum withdrawal and every 48 hr thereafter when cells were changed with fresh new serum-free medium. In the serum withdrawal group, the cells were cultured in serum-free medium with no additional enantiomer of Formula 7 or Formula 8. Cell survival was determined by the 3-(4,5-dimethylthiazol-2-yl)-5-(3-[…])-2-(4-sulfophenyl)-2H-tetrazolium inner salt (MTS) assay at 2 or 7 days after serum withdrawal.
At the end of the experiment, cells were washed with fresh medium and incubated with MTS solution in a humidified 37° C. with 5% CO2 incubator for 1.5 hr. After the incubation period, the cells were immediately analyzed using a Softmax program (Molecular Devices). […] The assay is based on the cellular conversion of the tetrazolium salt, MTS, into a formazan that is soluble in tissue culture medium and measured directly at 490 nm in 96-well assay plates. The absorbance is directly proportional to the number of living cells in culture. The arbitrary absorbance reading in control cells is expressed as 100% survival rate.

[1] = tested on: transient cerebral ischemia middle cerebral artery occlusion (MCAO) rat model; test: Transient cerebral ischemia middle cerebral artery occlusion (MCAO) rat model, infarct volume; format: in vivo; details: MK 801 3 mg/kg i.p., N 12
Experimental: The enantiomer of Formula 7 (test compound) was investigated in the transient cerebral ischemia middle cerebral artery occlusion (MCAO) rat model (as described in Nagasawa H. and Kogure K., Stroke, 1989, 20, 1037; and, Zea Longa E., Weinstein P. R., Carlson S, and Cummins R., Stroke, 1989, 20, 84) using male Wistar rats at 10 and 100 mg/kg (i.v.). MK 801 (Dizocilpine maleate; CAS Registry number 77086-22-7, a commercially available neuroprotectant compound) was used as a positive control (3 mg/kg, i.p.).
Rats (n=12) were randomly allocated to one of four experimental groups and were anesthetized. Blood flow from the internal carotid artery, anterior cerebral artery and posterior cerebral artery into the middle cerebral artery was blocked by this procedure. One hour after blockage, animals were treated over a 1 hour period with vehicle (administered i.v. over the one hour period), control (administered as a single i.p. dose at the start of the one hour period) and two doses of the enantiomer of Formula 7 (administered i.v. over the one hour period). Two hours after blockage, reperfusion was performed.
The animals were sacrificed and […] coronal sections of each brain were prepared. One in every forty sections (i.e. every […]) from the front to the occipital cortex was used to quantify the extent of the cerebral lesion. Slides were prepared using sections stained (according to the Nissl procedure) with cresyl violet and were examined under a light microscope.
Regional ischemic surface areas in the coronal sections of individual rats were determined according to the presence of cells with morphological changes. The areas of neuronal injury or infarction were measured and then added. The cortex and striatum volume were calculated for each animal (total ischemic surface area×0.8 mm (thickness)).
The mean volumes (.+−.S.E.M.) for each animal randomly assigned to the four experimental groups were compared using one-way ANOVA (one way ANOVA is a statistical method which compares 3 or more unmatched groups) followed by Dunnett's t-test (both methods incorporated in Statview 512+software, BarinPower, Calabasas, Calif., USA).

Row | Structure (SMILES) | 2 Day Survival Rate (PC12 cells; 10 µM applied once at serum withdrawal, MTS assay 2 days after serum withdrawal, control 100, serum-free 49.6) | 7 Day Survival Rate (PC12 cells; 10 µM at serum withdrawal and every 48 hr, MTS assay 7 days after serum withdrawal, control 100, serum-free 23.8) | Mean Infarct Volume ± S.E.M., Striatum ([1]; vehicle 79.4) | Mean Infarct Volume ± S.E.M., Cortex ([1]; vehicle 275.5) | Mean Infarct Volume ± S.E.M., Total Volume ([1]; vehicle 354.9)
1 | NC(=O)OC[C@H](OC(N)=O)c1ccccc1Cl [Formula 8] | 66.4 ± 5.4^1% | 85.2 ± 0.6^2% | – | – | –
2 | C[C@]12N[C@H](Cc3ccccc31)c1ccccc12 [MK 801, Dizocilpine maleate, reference compound] | – | – | 56.1 ± 5.3^2 mm^3 | 95.8 ± 24.5^1 mm^3 | 151.9 ± 28.7^1 mm^3
